Where two headings read alike, the source gives them in different places.
How the values were obtained:
MCT4 = target: T1, MCT4 (Homo sapiens, UniProt O15427); test: L-[14C]-lactate uptake study in MCT4 expressing MDA-MB-231 cells; format: cell-based; conditions: read-out: MCT4 IC50
T1 construct: These cells predominantly express MCT4 as confirmed by Western blot and quantitative PCR analysis; host or cells: MDA-MB-231
T1 sequence (O15427 2-465 limits assumed): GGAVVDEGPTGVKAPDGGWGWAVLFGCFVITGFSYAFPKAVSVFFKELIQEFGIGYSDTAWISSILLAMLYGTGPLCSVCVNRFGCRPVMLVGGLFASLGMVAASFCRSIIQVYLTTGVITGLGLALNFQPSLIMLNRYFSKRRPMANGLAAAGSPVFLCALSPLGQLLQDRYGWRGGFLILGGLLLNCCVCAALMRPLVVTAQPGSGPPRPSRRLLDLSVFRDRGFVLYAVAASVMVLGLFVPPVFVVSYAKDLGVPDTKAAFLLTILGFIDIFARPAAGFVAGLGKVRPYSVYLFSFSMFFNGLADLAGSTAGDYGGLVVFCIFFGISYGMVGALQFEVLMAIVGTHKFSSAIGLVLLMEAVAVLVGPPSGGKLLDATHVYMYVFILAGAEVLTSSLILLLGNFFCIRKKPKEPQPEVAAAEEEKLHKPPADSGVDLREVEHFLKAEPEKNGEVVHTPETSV
T1 sequence (P35613 140-385 partner limits assumed): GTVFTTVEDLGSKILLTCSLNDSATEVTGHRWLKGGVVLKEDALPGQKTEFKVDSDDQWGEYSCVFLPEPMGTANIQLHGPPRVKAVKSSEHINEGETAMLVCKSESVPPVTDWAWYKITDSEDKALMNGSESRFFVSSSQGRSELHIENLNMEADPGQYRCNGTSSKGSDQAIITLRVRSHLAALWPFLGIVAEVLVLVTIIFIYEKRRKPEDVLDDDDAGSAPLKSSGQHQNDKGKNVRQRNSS
Procedure: In this study, an L-[^14C]-lactate based transport assay was developed by us to quantify MCT4 transport and its inhibition by test compounds. […] For the MCT4 transport assay, the pH of HEPES buffer with L-[^14C]-lactate was adjusted to 7.0 such that lactate influx into the cells was aided by the pH gradient. […] Test compounds were diluted to working concentration in HEPES buffer (140 mM NaCl, 5 mM KCl, 2 mM CaCl2, 2 mM MgCl2, 10 mM HEPES, pH 7.0) containing 3 μM L-[^14C]-lactate (Perkin Elmer) and 2 μM L-lactate. […] HEPES buffer was replaced with 250 μL test solution. After 1 hour, media was replaced with 500 μL ice-cold stop buffer (0.1 mM CHC solution in HBS, pH 7.4) and the plates were placed on ice. Cells were washed twice with ice-cold stop buffer and solubilized using 250 μL of 0.1 M NaOH in 5% Triton-X (Millipore Sigma). A 150 μL aliquot from each well was added to 4 mL EcoLite(+)™ scintillation fluid (MP Biomedicals) and radioactivity was determined by scintillation spectrometry. Inhibition by each test solution was calculated as a percentage of the maximum control uptake. CHC and dimethylsulfoxide (DMSO) were used as controls. […]

WiDr tumor xenograft = test system: WiDr tumor xenograft; set-up: method as in ref 32, 33 = [32]; PMID 26005533; doi:10.1021/acsmedchemlett.5b00049; 32 Gurrapu S Jonnalagadda SK Alam MA Nelson GL Sneve MG Drewes LR Mereddy VR Monocarboxylate transporter 1 inhibitors as potential anticancer agents ACS Med Chem Lett 2015 6 558 61 10.1021/acsmedcheml || [33]; 33 Mereddy VR Drewes LR Alam MA Jonnalagadda SK Gurrapu S Therapeutic Compounds US 9296728B2 United States Patent and Trademark Office 2016 https://app.dimensions.ai/details/patent/US-9296728-B2; conditions: mice, three weeks; cited from earlier work
MDA-MB-231 cells = test: SRB cell proliferation inhibition assay, MDA-MB-231; format: cell-based; conditions: 72 hours, average ± sem
Procedure: MDA-MB-231 cells (ATCC, 2015) were grown in DMEM supplemented with 10% FBS and penicillin-streptomycin (50 U/ml, 50 μg/ml, Invitrogen). WiDr cells (ATCC, 2017) were cultured in MEM medium supplemented with 10% FBS (Atlanta Biologicals) and penicillin-streptomycin (50 U/ml, 50 μg/ml). For in vitro experiments, after seeding, cells were incubated at 37°C in 5% CO2 for 18–24 hours before the addition of test compounds.
Cells (5 × 10^4 cells/mL) were cultured in 48-well plates. Test compounds were dissolved in DMSO (final concentration of DMSO is <0.1%) and were added to culture wells at various concentrations in replicate and incubated for 72 hours. Growth medium was removed and the wells were washed with PBS and dried. SRB (0.5% in 1% acetic acid) was added to the wells and incubated for 30–45 minutes. The wells were washed 3 times with 1% acetic acid and dried. The cellular protein was dissolved in trizma base (10 mM, pH 10.2) and absorbance was recorded at 540 nm. Percent survival was calculated using the formula %Survival=Abstest compound/Abscontrol×100 .

- IC50 (MCT4; Figure 1A and text, lactate uptake): 23 nM
- IC50 (MCT4; Supplementary Table 1, average ± SEM): 18 ± 8 nM
- SRB IC50 (MDA-MB-231 cells): did not show any activity
- IC50 (MDA-MB-231 cells; Homo sapiens): > 25000 nM
Structure (SMILES): COc1cc(N(c2ccccc2)c2ccccc2)ccc1/C=C(\C#N)C(=O)O [Phenyl (9)]
- tumor growth reduction (WiDr tumor xenograft): 33%

Source: publication PMC6481325, “Novel N,N-dialkyl cyanocinnamic acids as monocarboxylate transporter 1 and 4 inhibitors” (Oncotarget, 2019)
